Data published in patent US9255080B2, “Quinazolinedione derivatives as PARP inhibitors” (Janssen Pharmaceutica NV, priority 2004, dated 2016).

Legend:
PARP-1 enzyme [1] = molecular target: T1, PARP-1 enzyme (Homo sapiens, UniProt P09874); assay: In vitro filtration assay for PARP-1 inhibitory activity; assay type: biochemical
Method: In Vitro Filtration Assay for PARP-1 Inhibitory Activity
Compounds of the present invention were tested in an in vitro filtration assay assessing PARP-1 activity (triggered in the presence of nicked DNA) by means of its histone poly (ADP-ribosyl)ation activity using [^32P]-NAD as ADP-ribosyl donor. The radioactive ribosylated histones were precipitated by trichloroacetic acid (TCA) in 96-well filterplates and the incorporated [^32P] measured using a scintillation counter
A mixture of histones (stock solution: 5 mg/ml in H2O), NAD^+ (stock solution: 100 mM in H2O), and [^32P]-NAD^+ in incubation buffer (50 mM Tris/HCl, pH 8; 0.2 mM DTT; 4 mM MgCl2) was made. A mixture of the PARP-1 enzyme (5-10 μg/ml) and nicked DNA was also made. The nicked DNA was prepared as described in the in vitro SPA for PARP-1 inhibitory activity. Seventy-five μl of the PARP-1 enzyme/DNA mixture together with 1 μl of compound in DMSO and 25 μl of histones-NAD^+/[^32P]-NAD^+ mixture was added per well of a 96-well filterplate (0.45 μm, supplier Millipore). The final concentrations in the incubation mixture were 2 μg/ml for the histones, 0.1 mM for the NAD^+, […] (0.5 μC) for the [^32P]-NAD^+ and 2 μg/ml for the nicked DNA. Plates were incubated for 15 min. at room temperature and the reaction was terminated by the addition of 10 μl ice cold 100% TCA followed by the addition of 10 μl ice-cold BSA solution (1% in H2O). The protein fraction was allowed to precipitate for 10 min. at 4° C. and plates were vacuum filtered. The plates were subsequently washed with, for each well, 1 ml of 10% ice cold TCA, 1 ml of 5% ice cold TCA and 1 ml of 5% TCA at room temperature. Finally 100 μl of scintillation solution (Microscint 40, Packard) was added to each well and the plates were transferred to a TopCountNXT™ (supplier: Packard) for scintillation counting and values were expressed as counts per minute (cpm). For each experiment, controls (containing PARP-1 enzyme and DMSO without compound), a blank incubation (containing DMSO but no PARP-1 enzyme or compound) and samples (containing PARP-1 enzyme and compound dissolved in DMSO) were run in parallel. All compounds tested were dissolved and eventually further diluted in DMSO. In first instance, compounds were tested at a concentration of 10^−5M. […] In each test, the blank value was subtracted from both the control and the sample values. The control sample represented maximal PARP-1 enzyme activity. For each sample, the amount of cpm was expressed as a percentage of the mean cpm value of the controls. […] Herein the effects of test compounds are expressed as pIC50 (the negative log value of the IC50-value).

PARP-1 enzyme [2] = molecular target: T1, PARP-1 enzyme; assay: In vitro scintillation proximity assay (SPA) for PARP-1 inhibitory activity; assay type: biochemical
Method: In Vitro Scintillation Proximity Assay (SPA) for PARP-1 Inhibitory Activity
Compounds of the present invention were tested in an in vitro assay based on SPA technology (proprietary to Amersham Pharmacia Biotech).
In principle, the assay relies upon the well established SPA technology for the detection of poly(ADP-ribosyl)ation of biotinylated target proteins, i.e histones. This ribosylation is induced using nicked DNA activated PARP-1 enzyme and [^3H]-nicotinamide adenine dinucleotide ([^3H]-NAD^+) as ADP-ribosyl donor.
As inducer of PARP-1 enzyme activity, nicked DNA was prepared. For this, 25 mg of DNA (supplier: Sigma) was dissolved in 25 ml DNAse buffer (10 mM Tris-HCl, pH 7.4; 0.5 mg/ml Bovine Serum Albumine (BSA); 5 mM MgCl2.6H2O and 1 mM KCl) to which 50 μl DNAse solution (1 mg/ml in 0.15 M NaCl) was added. After an incubation of 90 min. at 37° C., the reaction was terminated by adding 1.45 g NaCl, followed by a further incubation at 58° C. for 15 min. The reaction mixture was cooled on ice and dialysed at 4° C. for respectively 1.5 and 2 hours against 1.5 l of 0.2 M KCl, and twice against 1.5 l of 0.01 M KCl for 1.5 and 2 h respectively. The mixture was aliquoted and stored at −20° C. Histones (1 mg/ml, type II-A, supplier: Sigma) were biotinylated using the biotinylation kit of Amersham and stored aliquoted at −20° C. A stock solution of 100 mg/ml SPA poly(vinyl toluene) (PVT) beads (supplier: Amersham) was made in PBS. A stock solution of [^3H]-NAD^+ was made by adding 120 μl of [^3H]-NAD^+ (0.1 mCi/ml, supplier: NEN) to 6 ml incubation buffer (50 mM Tris/HCl, pH 8; 0.2 mM DTT; 4 mM MgCl2). A solution of 4 mM NAD^+ (supplier: Roche) was made in incubation buffer (from a 100 mM stock solution in water stored at −20° C.). The PARP-1 enzyme was produced using art known techniques, i.e. cloning and expression of the protein starting from human liver cDNA. Information concerning the used protein sequence of the PARP-1 enzyme including literature references can be found in the Swiss-Prot database under primary accession number P09874. Biotinylated histones and PVT-SPA beads were mixed and pre-incubated for 30 min. at room temperature. PARP-1 enzyme (concentration was lot dependent) was mixed with the nicked DNA and the mixture was pre-incubated for 30 min. at 4° C. Equal parts of this histones/PVT-SPA beads solution and PARP-1 enzyme/DNA solution were mixed and 75 μl of this mixture together with 1 μl of compound in DMSO and 25 μl of [^3H]-NAD^+ was added per well into a 96-well microtiterplate. The final concentrations in the incubation mixture were 2 μg/ml for the biotinylated histones, 2 mg/ml for the PVT-SPA beads, 2 μg/ml for the nicked DNA and between 5-10 μg/ml for the PARP-1 enzyme. After incubation of the mixture for 15 min. at room temperature, the reaction was terminated by adding 100 μl of 4 mM NAD^+ in incubation buffer (final concentration 2 mM) and plates were mixed.
The beads were allowed to sediment for at least 15 min. and plates transferred to a TopCountNXT™ (Packard) for scintillation counting, values were expressed as counts per minute (cpm). For each experiment, controls (containing PARP-1 enzyme and DMSO without compound), a blank incubation (containing DMSO but no PARP-1 enzyme or compound) and samples (containing PARP-1 enzyme and compound dissolved in DMSO) were run in parallel. All compounds tested were dissolved and eventually further diluted in DMSO. In first instance, compounds were tested at a concentration of 10^−5M. […] In each test, the blank value was subtracted from both the control and the sample values. The control sample represented maximal PARP-1 enzyme activity. For each sample, the amount of cpm was expressed as a percentage of the mean cpm value of the controls. […] Herein the effects of test compounds are expressed as pIC50 (the negative log value of the IC50-value).

[3] = [32P]-NAD, histones, nicked DNA, read-out: in vitro filter assay PARP-1 pIC50 (converted)
[4] = [3H]-NAD+, biotinylated histones, nicked DNA, read-out: in vitro SPA assay PARP-1 pIC50 (converted)

T1 sequence (P09874 whole entry): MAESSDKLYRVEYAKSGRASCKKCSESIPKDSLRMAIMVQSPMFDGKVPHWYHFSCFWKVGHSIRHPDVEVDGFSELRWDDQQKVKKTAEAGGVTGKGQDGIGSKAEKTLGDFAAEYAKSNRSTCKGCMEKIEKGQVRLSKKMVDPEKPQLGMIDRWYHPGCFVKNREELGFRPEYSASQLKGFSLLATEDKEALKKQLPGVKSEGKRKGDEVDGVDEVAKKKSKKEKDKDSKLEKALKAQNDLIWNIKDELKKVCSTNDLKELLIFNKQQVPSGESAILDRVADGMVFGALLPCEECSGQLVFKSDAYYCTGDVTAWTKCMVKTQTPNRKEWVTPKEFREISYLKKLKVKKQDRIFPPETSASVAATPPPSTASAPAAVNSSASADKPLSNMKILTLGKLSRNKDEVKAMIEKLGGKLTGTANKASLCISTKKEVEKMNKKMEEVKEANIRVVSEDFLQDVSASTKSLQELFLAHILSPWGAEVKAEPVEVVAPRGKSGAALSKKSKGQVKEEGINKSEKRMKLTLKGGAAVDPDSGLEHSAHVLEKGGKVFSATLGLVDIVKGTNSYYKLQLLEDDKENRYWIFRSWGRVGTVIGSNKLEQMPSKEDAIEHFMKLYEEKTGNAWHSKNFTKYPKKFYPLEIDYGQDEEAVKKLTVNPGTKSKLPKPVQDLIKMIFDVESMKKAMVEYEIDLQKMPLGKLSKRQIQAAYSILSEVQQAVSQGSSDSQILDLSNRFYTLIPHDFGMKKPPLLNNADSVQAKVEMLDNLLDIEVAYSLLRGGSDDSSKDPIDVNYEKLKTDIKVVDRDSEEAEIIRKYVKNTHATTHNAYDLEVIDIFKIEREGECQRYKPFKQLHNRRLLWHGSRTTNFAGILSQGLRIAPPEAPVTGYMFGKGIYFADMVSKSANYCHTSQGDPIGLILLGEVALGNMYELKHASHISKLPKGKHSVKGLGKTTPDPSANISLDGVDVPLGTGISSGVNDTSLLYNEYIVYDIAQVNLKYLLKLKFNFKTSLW

Compound | IC50 (PARP-1 enzyme [1]; [3]) [nM] | IC50 (PARP-1 enzyme [2]; [4]) [nM] | IC50 (PARP-1 enzyme [1]) [nM] | IC50 (PARP-1 enzyme [2]) [nM]
O=c1[nH]c(=O)n(CCCN2CCC(O)(c3ccc(Cl)cc3)CC2)c2ccccc12 [Compound 7] | 3240 | 292 |  | 
O=C(c1ccc(F)cc1)C1CCN(CCn2c(=O)[nH]c(=O)c3ccccc32)CC1 [Compound 10, 1-[2-[4-(4-fluorobenzoyl)-1-piperidinyl]ethyl]-2,4-(1H,3H)-quinazolinedione] | 1800 | 220 |  | 
O=c1[nH]c(=O)n(C2CCN(CC(O)C3CCc4ccccc4O3)CC2)c2ccccc12 (stereo in doubt) [Compound 9, 1-[1-[(2S)-2-[(2R)-3,4-dihydro-2H-1-benzopyran-2-yl]-2-hydroxyethyl]-4-piperidinyl]-2,4(1H,3H)-quinazolinedione] | 2180 | 359 |  | 
O=c1[nH]c(=O)n(CCCN2CCC(c3c[nH]c4ccccc34)CC2)c2ccccc12 [Compound 3] |  |  | 1030 | 136
O=c1[nH]c(=O)n(C2CCNCC2)c2ccccc12 [Compound 1] | 465 | 204 |  | 
O=c1[nH]c(=O)n(C2CCN(CCCn3c(=O)[nH]c4ccccc43)CC2)c2ccccc12 [Compound 5] | 1740 | 348 |  | 
O=c1[nH]c(=O)n(CCN2CCC(O)(c3ccc(Cl)cc3)CC2)c2ccccc12 [Compound 6] | 1330 | 167 |  | 
O=C(c1ccc(F)cc1)C1CCN(CCCn2c(=O)[nH]c(=O)c3ccccc32)CC1 [Compound 11, 1-[3-[4-(4-fluorobenzoyl)-1-piperidinyl]propyl]-2,4-(1H,3H)-quinazolinedione] | 2720 | 221 |  | 
O=C(CCCN1CCC(n2c(=O)[nH]c(=O)c3ccccc32)CC1)c1ccc(F)cc1 [Compound 2] | 1570 | 257 |  | 
